# Tests used:
# [1] = tested on: Mycobacterium tuberculosis; assay: Antituberculosis activity against Mycobacterium tuberculosis H37Rv F420 mutant after 2 weeks; type: functional
# [2] = tested on: Mycobacterium tuberculosis; assay: Antituberculosis activity against Mycobacterium tuberculosis H37Rv Ddn mutant after 2 weeks; type: functional
Structure (SMILES),MIC [1] [µM],MIC [2] [µM]
O=[N+]([O-])c1nc2n(c1Cl)C[C@H](OCc1ccc(OC(F)(F)F)cc1)CO2,25,50
Nc1c([N+](=O)[O-])nc2n1C[C@H](OCc1ccc(OC(F)(F)F)cc1)CO2,>100,>100
N#Cc1c([N+](=O)[O-])nc2n1C[C@H](OCc1ccc(OC(F)(F)F)cc1)CO2,>100,>100
O=[N+]([O-])c1cn2c(n1)OC[C@@H](OCc1ccc(OC(F)(F)F)cc1)C2 [PRETOMANID],>100,>100
O=[N+]([O-])c1nc2n(c1Br)C[C@H](OCc1ccc(OC(F)(F)F)cc1)CO2,25,25

# Source: ChEMBL document CHEMBL1641439, “The effect of 5-substitution on the electrochemical behavior and antitubercular activity of PA-824” (2011)
